Experimental data reported in US6737383B1, “Herbicidal oxadiazolidines” (priority 1999, dated 2004).

How the values were obtained:
velvetleaf = assay: Test B pre/postemergence velvetleaf; format: in vivo, Abutilon theophrasti
Method in brief: (§1)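 Herbicidal effect was estimated by eye on a ten-point control scale after plants spent twelve to sixteen days in a greenhouse following soil or foliar treatment. Foliar sprays targeted plants at one to four leaves; all doses were formulated in a non-phytotoxic solvent with surfactant.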

wheat = assay: Test B pre/postemergence wheat; format: in vivo, Triticum aestivum
Method in brief: as §1

rape = assay: Test B pre/postemergence rape; format: in vivo, Brassica napus
Method in brief: as §1

giant foxtail = assay: Test B pre/postemergence giant foxtail; format: in vivo, Setaria faberii
Method in brief: as §1

duck salad = assay: Test B flood test duck salad; format: in vivo, Heteranthera limosa; conditions: Pre-emergence
Method in brief: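 Each value is a visual injury score relative to controls, with 10 meaning complete control and 0 no effect. Evaluation took place twelve to sixteen days after the 2-leaf-stage plants were treated and kept in the greenhouse.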

soybean = assay: Test B pre/postemergence soybean; format: in vivo, Glycine max
Method in brief: as §1

cocklebur = assay: Test B pre/postemergence cocklebur; format: in vivo, Xanthium strumarium
Method in brief: as §1

morningglory = assay: Test B pre/postemergence morningglory; format: in vivo, Ipomoea hederacea
Method in brief: as §1

corn = assay: Test B pre/postemergence corn; format: in vivo, Zea mays
Method in brief: as §1

crabgrass = assay: Test B pre/postemergence crabgrass; format: in vivo, Digitaria sanguinalis
Method in brief: as §1

purple nutsedge = assay: Test B pre/postemergence purple nutsedge; format: in vivo, Cyperus rotundus
Method in brief: as §1

bedstraw = assay: Test B pre/postemergence bedstraw; format: in vivo, Galium aparine
Method in brief: as §1

pigweed = assay: Test B pre/postemergence pigweed; format: in vivo, Amaranthus retroflexus
Method in brief: as §1

sugar beet = assay: Test B pre/postemergence sugar beet; format: in vivo, Beta vulgaris
Method in brief: as §1

surinam grass = assay: Test B pre/postemergence surinam grass; format: in vivo, Brachiaria decumbens
Method in brief: as §1

[1] = Postemergence, Rate 1000 g/ha, scale 0 to 10 (0 no effect, 10 complete control)
[2] = Preemergence, Rate 250 g/ha, scale of 0 to 10 where 0 is no effect and 10 is complete control
[3] = Preemergence, Rate 500 g/ha, scale of 0 to 10 where 0 is no effect and 10 is complete control
[4] = Rate 125 g/ha, Postemergence, scale of 0 to 10 where 0 is no effect and 10 is complete control
[5] = Rate 125 g/ha, Preemergence, scale of 0 to 10 where 0 is no effect and 10 is complete control
[6] = Rate 250 g/ha, Postemergence, scale of 0 to 10 where 0 is no effect and 10 is complete control
[7] = Rate 500 g/ha, Postemergence, scale 0 to 10, 0 no effect, 10 complete control
[8] = Rate 1000 g/ha, Preemergence, scale 0 to 10 (0 no effect, 10 complete control)

CCOC(=O)C(C)N(C(=O)n1oc(=O)n(C2CCCCC2)c1=O)c1ccc(F)cc1 (centres unmarked) [Compound 280]
Velvetleaf plant response rating (velvetleaf; [1]): 0 | Velvetleaf plant response rating (velvetleaf; [2]): 0 | Plant response rating, Velvetleaf (velvetleaf; [3]): 0 | Velvetleaf plant response rating (velvetleaf; [4]): 0 | Velvetleaf plant response rating (velvetleaf; [5]): 0 | Plant response rating, Velvetleaf (velvetleaf; [6]): 0 | Velvetleaf plant response rating (velvetleaf; [7]): 0 | Plant response rating, Velvetleaf (velvetleaf; [8]): 0 | Wheat plant response rating (wheat; [1]): 0 | Wheat plant response rating (wheat; [2]): 0 | Plant response rating, Wheat (wheat; [3]): 0 | Wheat plant response rating (wheat; [4]): 0 | Wheat plant response rating (wheat; [5]): 0 | Plant response rating, Wheat (wheat; [6]): 0 | Wheat plant response rating (wheat; [7]): 0 | Plant response rating, Wheat (wheat; [8]): 0 | Rape plant response rating (rape; [1]): 0 | Rape plant response rating (rape; [2]): 0 | Plant response rating, Rape (rape; [3]): 0 | Rape plant response rating (rape; [4]): 0 | Rape plant response rating (rape; [5]): 0 | Plant response rating, Rape (rape; [6]): 0 | Rape plant response rating (rape; [7]): 0 | Plant response rating, Rape (rape; [8]): 0 | Giant foxtail plant response rating (giant foxtail; [1]): 0 | Giant foxtail plant response rating (giant foxtail; [2]): 0 | Plant response rating, Giant foxtail (giant foxtail; [3]): 0 | Giant foxtail plant response rating (giant foxtail; [4]): 0 | Giant foxtail plant response rating (giant foxtail; [5]): 0 | Plant response rating, Giant foxtail (giant foxtail; [6]): 0 | Giant foxtail plant response rating (giant foxtail; [7]): 0 | Plant response rating, Giant foxtail (giant foxtail; [8]): 0 | Ducksalad plant response rating (duck salad; Rate 1000 g/ha, scale 0 to 10 (0 no effect, 10 complete control)): 0 | Ducksalad plant response rating (duck salad; Rate 125 g/ha, flood test species, scale 0 to 10 where 0 is no effect and 10 is complete control): 0 | Ducksalad plant response rating (duck salad; Rate 250 g/ha, flood-test species, scale 0 to 10, 0 is no effect, 10 is complete control): 0 | Ducksalad plant response rating (duck salad; Rate 500 g/ha, flood test species, scale 0 to 10 (0 no effect, 10 complete control)): 0 | Soybean plant response rating (soybean; [1]): 5 | Soybean plant response rating (soybean; [2]): 0 | Plant response rating, Soybean (soybean; [3]): 0 | Soybean plant response rating (soybean; [4]): 1 | Soybean plant response rating (soybean; [5]): 0 | Plant response rating, Soybean (soybean; [6]): 3 | Soybean plant response rating (soybean; [7]): 5 | Plant response rating, Soybean (soybean; [8]): 0 | Cocklebur plant response rating (cocklebur; [1]): 0 | Cocklebur plant response rating (cocklebur; [2]): 0 | Plant response rating, Cocklebur (cocklebur; [3]): 0 | Cocklebur plant response rating (cocklebur; [4]): 0 | Cocklebur plant response rating (cocklebur; [5]): 0 | Plant response rating, Cocklebur (cocklebur; [6]): 0 | Cocklebur plant response rating (cocklebur; [7]): 0 | Plant response rating, Cocklebur (cocklebur; [8]): 0 | Morningglory plant response rating (morningglory; [1]): 0 | Morningglory plant response rating (morningglory; [2]): 0 | Plant response rating, Morningglory (morningglory; [3]): 0 | Morningglory plant response rating (morningglory; [4]): 0 | Morningglory plant response rating (morningglory; [5]): 0 | Plant response rating, Morningglory (morningglory; [6]): 0 | Morningglory plant response rating (morningglory; [7]): 0 | Plant response rating, Morningglory (morningglory; [8]): 0 | Corn plant response rating (corn; [1]): 0 | Corn plant response rating (corn; [2]): 0 | Plant response rating, Corn (corn; [3]): 0 | Corn plant response rating (corn; [4]): 0 | Corn plant response rating (corn; [5]): 0 | Plant response rating, Corn (corn; [6]): 0 | Corn plant response rating (corn; [7]): 0 | Plant response rating, Corn (corn; [8]): 0 | Crabgrass plant response rating (crabgrass; [1]): 0 | Crabgrass plant response rating (crabgrass; [2]): 0 | Plant response rating, Crabgrass (crabgrass; [3]): 0 | Crabgrass plant response rating (crabgrass; [4]): 0 | Crabgrass plant response rating (crabgrass; [5]): 0 | Plant response rating, Crabgrass (crabgrass; [6]): 0 | Crabgrass plant response rating (crabgrass; [7]): 0 | Plant response rating, Crabgrass (crabgrass; [8]): 0 | Nutsedge plant response rating (purple nutsedge; [1]): 0 | Nutsedge plant response rating (purple nutsedge; [2]): 0 | Plant response rating, Nutsedge (purple nutsedge; [3]): 0 | Nutsedge plant response rating (purple nutsedge; [4]): 0 | Nutsedge plant response rating (purple nutsedge; [5]): 0 | Plant response rating, Nutsedge (purple nutsedge; [6]): 0 | Nutsedge plant response rating (purple nutsedge; [7]): 0 | Plant response rating, Nutsedge (purple nutsedge; [8]): 0 | Bedstraw plant response rating (bedstraw; [1]): 0 | Bedstraw plant response rating (bedstraw; [2]): 0 | Plant response rating, Bedstraw (bedstraw; [3]): 0 | Bedstraw plant response rating (bedstraw; [4]): 0 | Bedstraw plant response rating (bedstraw; [5]): 0 | Plant response rating, Bedstraw (bedstraw; [6]): 0 | Bedstraw plant response rating (bedstraw; [7]): 0 | Plant response rating, Bedstraw (bedstraw; [8]): 0 | Redroot pigweed plant response rating (pigweed; [1]): 3 | Redroot pigweed plant response rating (pigweed; [2]): 0 | Plant response rating, Redroot pigweed (pigweed; [3]): 0 | Redroot pigweed plant response rating (pigweed; [4]): 0 | Redroot pigweed plant response rating (pigweed; [5]): 0 | Plant response rating, Redroot pigweed (pigweed; [6]): 0 | Redroot pigweed plant response rating (pigweed; [7]): 1 | Plant response rating, Redroot pigweed (pigweed; [8]): 0 | Sugarbeets plant response rating (sugar beet; [1]): 0 | Sugarbeets plant response rating (sugar beet; [2]): 0 | Plant response rating, Sugarbeets (sugar beet; [3]): 0 | Sugarbeets plant response rating (sugar beet; [4]): 0 | Sugarbeets plant response rating (sugar beet; [5]): 0 | Plant response rating, Sugarbeets (sugar beet; [6]): 0 | Sugarbeets plant response rating (sugar beet; [7]): 0 | Plant response rating, Sugarbeets (sugar beet; [8]): 0 | B. signalgrass plant response rating (surinam grass; [1]): 0 | B. signalgrass plant response rating (surinam grass; [2]): 0 | Plant response rating, B. signalgrass (surinam grass; [3]): 0 | B. signalgrass plant response rating (surinam grass; [4]): 0 | B. signalgrass plant response rating (surinam grass; [5]): 0 | Plant response rating, B. signalgrass (surinam grass; [6]): 0 | B. signalgrass plant response rating (surinam grass; [7]): 0 | Plant response rating, B. signalgrass (surinam grass; [8]): 0
